Measured values taken from PMC12785511, “Integrative Profiling for BBB Permeability Using Capillary Electrochromatography, Experimental Physicochemical Parameters, and Ensemble Machine Learning” (International Journal of Molecular Sciences, 2025).
Like-named read-outs stand apart in the source and are kept apart here.

Experiments:
[1] = cited from earlier work
[2] = Sirius T3 automated potentiometric titrations with n-octanol, log P / log D; settings: for logP / logD: n-octanol/water; for Log D7.4: calculated based on the experimentally obtained pKa and log P data
[3] = open-tubular capillary electrochromatography (CEC), permeability k′ parameter; type: in vitro ADME; settings: pH 7.4 HEPES buffer 40 mM, migration times in coated and uncoated capillary, mean ± SD of three independent experiments
[4] = Sirius T3 automated potentiometric (pH-metric) titrations, pKa; settings: ionic strength adjusted (ISA) water ([…] KCl)
[5] = physchem; settings: for logD: pH 7.4
[6] = experimental in vivo measurements from rats, data retrieved from literature
[7] = pKa ± SD, […] ISA water or Yasuda–Shedlovsky extrapolation from methanol cosolvent, value used for regression

SMILES | Log BB [1, 6] | logP [2] | logD ([2]; pH 7.4) | k′ ± SD (CEC) [3] | pKa [4, 7] | further results
CC(=O)Oc1ccccc1C(=O)O [acetylsalicylic acid] | −1.30 | 1.31 ± 0.01 | -2.73 | 0.03441 ± 0.00987 | – | –
CN(C)CCC=C1c2ccccc2CCc2ccccc21 [amitriptyline] | 1.30 | 4.68 ± 0.02 | 2.84 | 0.00004 ± 0.00001 | 9.23 ± 0.08 | –
CC(C)NCC(O)COc1ccc(CC(N)=O)cc1 (stereo not drawn) [atenolol] | – | – | – | 0.00183 ± 0.00051 | – | –
CN1[C@@H]2CC[C@H]1C[C@@H](OC(=O)C(CO)c1ccccc1)C2 (stereo partly drawn) [atropine] | – | – | – | 0.0044 ± 0.00309 | – | –
CNCCc1ccccn1 [betahistine] | −0.30 | 0.49 ± 0.01 | -1.95 | 0.03582 ± 0.00587 | 9.84 | –
O=C(CCCN1CCC(O)(c2ccc(Br)cc2)CC1)c1ccc(F)cc1 [bromperidol] | 1.38 | 3.87 ± 0.05 | 2.81 | −0.00795 ± 0.00034 | 8.45 ± 0.1 | –
O=C1CC2(CCCC2)CC(=O)N1CCCCN1CCN(c2ncccn2)CC1 [buspirone] | – | – | – | – | 7.62 | –
CN(C)CCCN1c2ccccc2Sc2ccc(Cl)cc21 [chlorpromazine] | – | 5.1 ± 0.03 | 3.43 | – | 9.07 ± 0.01 | –
CN(C)CCCC1(c2ccc(F)cc2)OCc2cc(C#N)ccc21 (stereo not drawn) [citalopram] | 0.48 | – | – | 0.00405 ± 0.00229 | – | –
Clc1cccc(Cl)c1N=C1NCCN1 [clonidine] | 0.11 | – | – | 0.00321 ± 0.00046 | – | pKa [4]: 8.12 ± 0.01
CN1CCN(C2=Nc3cc(Cl)ccc3Nc3ccccc32)CC1 [clozapine] | 0.60 | 3.92 ± 0.1 | 3.52 | 0.00693 ± 0.00245 | – | –
COc1ccc2c3c1O[C@H]1[C@@H](O)C=C[C@H]4[C@@H](C2)N(C)CC[C@@]341 [codeine] | – | – | – | −0.01188 ± 0.00888 | – | Log BB ([1]; rat, in vivo): 0.55; logP [5]: 1.14 ± 0.01; logD [5]: 0.26
CCC1(C2=CCCCC2)C(=O)NC(=O)NC1=O [cyclobarbital] | – | – | – | 0.00186 ± 0.00088 | – | Log BB ([1]; rat, in vivo): −0.30; logD [5]: 1.16
CNCCCN1c2ccccc2CCc2ccccc21 [desipramine] | 1.20 | – | – | −0.01523 ± 0.00343 | – | –
O=C(O)Cc1ccccc1Nc1c(Cl)cccc1Cl [diclofenac] | −1.70 | 4.33 ± 0.01 | 1.26 | 0.00802 ± 0.0032 | – | –
OCCN1CCN(CCCN2c3ccccc3Sc3ccc(C(F)(F)F)cc32)CC1 [fluphenazine] | 1.51 | 5.12 ± 0.06 | 4.58 | 0.111 ± 0.00192 | 7.79 ± 0.07 | –
COc1ccc2c3c1O[C@H]1C[C@@H](O)C=C[C@@]31CCN(C)C2 [galanthamine] | – | – | – | – | – | Log BB ([1]; rat, in vivo): 0.00; logP [5]: 1.15; logD [5]: 0.18
O=C(CCCN1CCC(O)(c2ccc(Cl)cc2)CC1)c1ccc(F)cc1 [haloperidol] | – | 4.37 ± 0.08 | 3.18 | −0.00906 ± 0.00138 | 8.66 ± 0.08 | –
OCCOCCN1CCN(C(c2ccccc2)c2ccc(Cl)cc2)CC1 (stereo not drawn) [hydroxyzine] | 0.90 | 3.73 ± 0.03 | 3.34 | −0.00058 ± 0.00031 | 7.66 ± 0.04 | –
CC(C)Cc1ccc(C(C)C(=O)O)cc1 (stereo not drawn) [ibuprofen] | – | 3.8 | 1.07 | −0.0369 ± 0.00011 | – | –
CN(C)CCCN1c2ccccc2CCc2ccccc21 [imipramine] | 1.30 | – | – | – | – | –
COc1ccc2c(c1)c(CC(=O)O)c(C)n2C(=O)c1ccc(Cl)cc1 [indomethacin] | −1.26 | 6.31 ± 0.12 | 3.92 | 0.01869 ± 0.00624 | – | –
O=C(c1ccccc1)c1ccc2n1CCC2C(=O)O (stereo not drawn) [ketorolac] | −2.00 | 2.9 ± 0.04 | -0.05 | 0.02127 ± 0.00131 | 3.64 ± 0.06 | –
C[C@H]1COc2c(N3CCN(C)CC3)c(F)cc3c(=O)c(C(=O)O)cn1c23 [levofloxacin] | −0.70 | 0.82 ± 0.01 | 0.77 | – | – | –
CN(C)C(=O)C(CCN1CCC(O)(c2ccc(Cl)cc2)CC1)(c1ccccc1)c1ccccc1 [loperamide] | 0.70 | – | – | 0.0147 ± 0.00102 | – | logD [5]: 3.21

SMILES | Log BB [1, 6] | logP [2] | logD ([2]; pH 7.4) | k′ ± SD (CEC) [3] | pKa [4, 7] | further results
COc1ccc(CN(CCN(C)C)c2ccccn2)cc1 [mepyramine] | – | 2.73 ± 0.02 | 1.48 | – | 8.71 ± 0.05 | –
CCN(CC)CCNC(=O)c1cc(Cl)c(N)cc1OC [metoclopramide] | 0.08 | – | – | −0.00563 ± 0.00136 | – | –
CN1CCN2c3ccccc3Cc3ccccc3C2C1 (stereo not drawn) [mianserin] | 0.99 | 3.74 ± 0.01 | 3.5 | −0.02148 ± 0.00155 | 7.25 ± 0.03 | –
COc1ccc2cc([C@H](C)C(=O)O)ccc2c1 [naproxen] | −1.70 | – | – | 0.0105 ± 0.0046 | – | –
CNCCC=C1c2ccccc2CCc2ccccc21 [nortriptyline] | 1.04 | 4.29 ± 0.01 | 1.79 | −0.01133 ± 0.0021 | 10.05 ± 0.03 | –
Fc1ccc([C@@H]2CCNC[C@H]2COc2ccc3c(c2)OCO3)cc1 [paroxetine] | 0.48 | 3.39 ± 0.04 | – | 0.02144 ± 0.00689 | 9.76 ± 0.08 | –
CCC1(c2ccccc2)C(=O)NC(=O)NC1=O [phenobarbital] | – | – | – | −0.01824 ± 0.00855 | – | Log BB ([1]; rat, in vivo): −0.12; logD [5]: 0.98
CCCCC1C(=O)N(c2ccccc2)N(c2ccccc2)C1=O [phenylbutazone] | −0.52 | – | – | 0.00083 ± 0.00015 | – | –
CC(C)NCC(O)COc1cccc2[nH]ccc12 (stereo not drawn) [pindolol] | 0.30 | – | – | – | – | pKa [4]: 9.62 ± 0.07
CN(C)CCCN1c2ccccc2Sc2ccccc21 [promazine] | 1.23 | 4.54 | 2.55 | −0.01399 ± 0.00228 | 9.39 | logD ([2]; pH 1): 0.83; logD ([2]; pH 1.2): 0.83; logD ([2]; pH 2): 0.83; logD ([2]; pH 3): 0.83; logD ([2]; pH 4): 0.84; logD ([2]; pH 5): 0.91; logD ([2]; pH 6): 1.32; logD ([2]; pH 6.5): 1.71; logD ([2]; pH 7): 2.17; logD ([2]; pH 8): 3.14; logD ([2]; pH 9): 4; logD ([2]; pH 10): 4.45; logD ([2]; pH 11): 4.53; logD ([2]; pH 12): 4.54
CC(C)NCC(O)COc1cccc2ccccc12 (stereo not drawn) [propranolol] | 0.85 | – | – | 0.00202 ± 0.00061 | – | –
C=C[C@H]1C[N@@]2CC[C@H]1C[C@@H]2[C@@H](O)c1ccnc2ccc(OC)cc12 [quinidine] | 0.33 | – | – | 0.0034 ± 0.0004 | – | –
CNC(=C[N+](=O)[O-])NCCSCc1ccc(CN(C)C)o1 [ranitidine] | −1.23 | 0.34 ± 0.02 | -0.75 | −0.00256 ± 0.00041 | 8.43 ± 0.01 | –
Cc1nc2n(c(=O)c1CCN1CCC(c3noc4cc(F)ccc34)CC1)CCCC2 [risperidone] | – | 3.09 ± 0.03 | – | 0.00698 ± 0.00377 | – | –
CCN(C)C(=O)Oc1cccc([C@H](C)N(C)C)c1 [rivastigmine] | – | – | – | −0.00018 ± 0.00009 | – | logD [5]: 0.66
CC(C)(C)NCC(O)c1ccc(O)c(CO)c1 (stereo not drawn) [salbutamol] | −1.03 | 0.3 ± 0.04 | – | −0.0103 ± 0.00502 | 9.6 ± 0.01 | Log D7.4 ([2]; pH 7.4): −1.90
O=C(O)c1ccccc1O [salicylic acid] | – | 2.31 ± 0.01 | -0.98 | 0.02255 ± 0.00676 | – | –
S=C(NC1CCCCC1)N1CCC(c2cnc[nH]2)CC1 [thioperamide] | −0.16 | – | – | 0.01849 ± 0.00363 | – | logD [5]: 2.27
CSc1ccc2c(c1)N(CCC1CCCCN1C)c1ccccc1S2 (stereo not drawn) [thioridazine] | 0.24 | 5.38 ± 0.03 | 3.54 | – | 9.25 ± 0.01 | –
O=c1n(CCCN2CCN(c3cccc(Cl)c3)CC2)nc2ccccn12 [trazodone] | 0.30 | 2.98 | 2.88 | −0.0108 ± 0.00292 | 6.83 ± 0.04 | –
CN1CCN(CCCN2c3ccccc3Sc3ccc(C(F)(F)F)cc32)CC1 [trifluoperazine] | 1.44 | 6.14 ± 0.01 | 5.53 | 0.2028 ± 0.00151 | – | –
Cc1ccc(/C(=C\CN2CCCC2)c2ccccn2)cc1 [triprolidine] | 0.78 | 3.87 ± 0.01 | – | 0.01006 ± 0.00233 | 9.39 ± 0.06 | Log D7.4 ([2]; pH 7.4): 1.88
COc1ccc(C(CN(C)C)C2(O)CCCCC2)cc1 (stereo not drawn) [venlafaxine] | 0.48 | 2.97 | 0.7 | −0.01411 ± 0.00205 | 9.67 ± 0.02 | –
Cc1cn([C@H]2C[C@H](N=[N+]=[N-])[C@@H](CO)O2)c(=O)[nH]c1=O [zidovudine] | – | 0.09 ± 0.01 | 0.09 | 0.00428 ± 0.00056 | 9.51 | –
CN(C)CCc1c[nH]c2ccc(C[C@H]3COC(=O)N3)cc12 [zolmitriptan] | −1.40 | 1.19 ± 0.01 | -1.01 | −0.00882 ± 0.00356 | 9.6 ± 0.05 | –
